Results on 1 compound are retold here after patent US9458137B2, “Substituted indol-5-ol derivatives and their therapeutical applications” (NantBioScience, Inc., priority 2012, dated 2016).

Molecules are shown by their SMILES.

The test system of assay [1] is human MIAPaCa-2 pancreatic carcinoma xenograft. In words: MIAPaCa-2 pancreatic carcinoma xenograft. It is filed as in vivo, athymic nude-Faxn1 mice. The procedure:
The objective of the third study was to evaluate antitumor activities of novel multiple-kinase inhibitor NTW-3475 in human MIAPaCa-2 pancreatic carcinoma xenograft in athymic nude-Faxn1 mice.
Four animals were randomly assigned to study groups. Each animal was weighed, and then injected subcutaneously in the left and right flank area with 0.1 ml of 5.0×10^7 MIAPaCa-2 cells per mL.
Each test or control animal was on a 5-day on, two-day off for two cycles treatment schedule with negative control vehicle, positive control Abraxane at 20 mg/kg or 25, 50 mg/kg of NTW-3475. Tumor growth was measured with a digital hand held caliper twice weekly (once tumor emerges) prior to the first dosing and then two to three times weekly until euthanized.
FIGS. 42-44 depict the results of various concentrations of NTW-3456 on a nude mouse/xenograft the MIAPaCa-2 model of pancreatic carcinoma.
FIGS. 45 and 46 depict the results of various concentrations of NTW-3456, with or without Abraxane on a MiaPaCa-2 model of pancreatic carcinoma.

Assay [2] has as its system AN3 human endometrial carcinoma carcinoma xenograft. In words: AN3 endometrial carcinoma xenograft. It is filed as in vivo, nude mouse. The following applies: AN3 xenograft. From the text:
This example assesses NTW-3475's anti-tumor activity using a scid mouse xenograft models for leukemias and nude mouse xenograft models of endometrial, pancreatic and thyroid carcinomas. NTW-3475 combination therapy was also studied in murine xenografts.
FIGS. 39-41 depict the results of various concentrations of NTW-3456 on the AN3 nude mouse/xenograft model of endometrial carcinoma.

Assay [3] has as its system human K562 chronic myelogenous leukemia (CML) xenograft. In words: K562 CML xenograft model. It is filed as in vivo, SCID mice. The following applies: 5-day on, two-day off for two cycles; female SCID mice. The procedure:
The objective of the second study was to evaluate antitumor activities of novel multiple-kinase inhibitor NTW-3475 in human K562 chronic myelogenous leukemia (CML) xenograft model in female SCID mice.
Four to six animals were randomly assigned to study groups. Each animal was weighed, and then injected subcutaneously in the left and right flank area with 0.1 ml of 8.0×10^7 K562 cells per mL.
Each test or control animal was on a 5-day on, two-day off for two cycles treatment schedule. Tumor growth was measured with a digital hand held caliper twice weekly (once tumor emerges) prior to the first dosing and then two to three times weekly until euthanized. Animals were weighed prior to tumor cell injection, prior to dosing, two to three times weekly with tumor growth measurements, and prior to euthanasia.
FIGS. 34 and 35 depict the results of various concentrations of NTW-3456 on a scid mouse/xenograft model of CML using K562 cells.

Assay [4] relates to human MV411 human acute myelogenous leukemia (AML) xenograft. It is filed as in vivo, SCID mice. The following applies: 25, 50 mg/kg, 5-day on, two-day off for two cycles; female SCID mice. The protocol: The objective of the first study was to evaluate antitumor activities of the novel multiple-kinase inhibitor NTW-3475 against human MV411 human acute myelogenous leukemia (AML) xenograft model in female SCID mice.
Four or six animals were randomly assigned to each study group. Each animal was injected subcutaneously in the left and right flank area with 0.1 ml of 1.0×10^8 MV411 cells per mL
Each test or control animal was placed on a 5-day on, two-day off for two cycles of vehicle negative control or 25, 50 mg/kg of NTW-3475. Tumor growth was measured with a digital hand held caliper twice weekly (once tumor emerges) prior to the first dosing and then two to three times weekly until euthanized. Animals were weighed prior to tumor cell injection, prior to dosing, two to three times weekly with tumor growth measurements, and prior to euthanasia.
FIGS. 27-32 depict the results of various concentrations of NTW-3456 on tumor growth in scid mouse/xenograft model of AML using MV411 cells. […] This invention is characterized as it is here was a correlation between the inhibition of the pFLT3 kinase and growth control.

The next assay deals with CK1(y). Description: Kinase panel activity. The following applies: 0.1 μM, ATP Km. It is filed as biochemical, yeast. The protocol:
(§1) The effect of NTW-3475 on kinase activity was tested for a wide range of kinases and is shown in Table 2: Summary Sheet, Activity % ATP Concentration: Km

A further assay concerns c-RAF(h). Description: Kinase panel activity. It is filed as biochemical, human. The following applies: 0.1 μM, ATP Km. The procedure:
as §1

A further assay relates to MLCK(h). In words: Kinase panel activity. It is filed as biochemical, human. The conditions noted are these: 0.1 μM, ATP Km. The protocol:
as §1

For `Cc1cc2c(F)c(Oc3nc(Nc4cc(C5CC5)[nH]n4)cc(N4CCN(C)CC4)n3)cc(F)c2[nH]1` [NTW-3475], the “anti-tumor effect against pancreatic carcinoma cells” value in assay [1] (25, 50 mg/kg, 5-day on, two-day off for two cycles) was “strong anti-tumor effect”. Further, the “anti-tumor effect of the combination” value in assay [1] (in combination with Abraxane) was “anti-tumor effect”. Also, the anti-tumor effect result in assay [2] was “anti-tumor effect”. In assay [3], the “anti-tumor effect against CML” value is “strong anti-tumor effect”. Further, the “anti-tumor effect against AML” value in assay [4] was “strong anti-tumor effect”. In addition, the Activity % in the assay on CK1(y) is recorded as 100%; in the assay with c-RAF(h), 94%; in the assay on MLCK(h) it was 110%.
